Assays:
CCRF-CEM = assay: NCI-60 SRB screen; format: cell-based; conditions: Homo sapiens, single dose 10^−5 M, read-out: Growth inhibition (%)
SN12C = assay: NCI-60 SRB screen; format: cell-based, human; conditions: Homo sapiens, SN12C; SN 12 C; single dose 10^−5 M; read-out: Growth inhibition (%)
HOP-92 = assay: NCI-60 SRB screen; format: cell-based, human; conditions: Homo sapiens; HOP-92; single dose 10^−5 M; read-out: Growth inhibition (%)
K-562 = assay: NCI-60 SRB screen; format: cell-based, human; conditions: Homo sapiens, K562; K-562; single dose 10^−5 M; read-out: Growth inhibition (%)
ACHN = assay: NCI-60 SRB screen; format: cell-based; conditions: Homo sapiens, single dose 10^−5 M, read-out: Growth inhibition (%)
KM12 = assay: NCI-60 SRB screen; format: cell-based, human; conditions: Homo sapiens; KM12; single dose 10^−5 M; read-out: Growth inhibition (%)
[1] = tested on: panel of 60 cancer cell lines; assay: NCI-60 SRB screen, mean or range over the panel; format: cell-based, human; conditions: Homo sapiens; mean over the cell lines; single dose 10^−5 M; read-out: Mean growth inhibition (%)
UACC-62 = assay: NCI-60 SRB screen; format: cell-based, human; conditions: Homo sapiens; UACC-62; single dose 10^−5 M; read-out: Growth inhibition (%)
SK-MEL-2 = assay: NCI-60 SRB screen; format: cell-based, human; conditions: Homo sapiens; SK-MEL-2; single dose 10^−5 M; read-out: Growth inhibition (%)
M14 = assay: NCI-60 SRB screen; format: cell-based, human; conditions: Homo sapiens; M14; single dose 10^−5 M; read-out: Growth inhibition (%)
HCT-116 = assay: NCI-60 SRB screen; format: cell-based, human; conditions: Homo sapiens; HCT-116; single dose 10^−5 M; read-out: Growth inhibition (%)
TK-10 = assay: NCI-60 SRB screen; format: cell-based, human; conditions: Homo sapiens; TK-10; single dose 10^−5 M; read-out: Growth inhibition (%)
SK-OV-3 = assay: NCI-60 SRB screen; format: cell-based, human; conditions: Homo sapiens; SK-OV-3; single dose 10^−5 M; read-out: Growth inhibition (%)
HCC-2998 = assay: NCI-60 SRB screen; format: cell-based, human; conditions: Homo sapiens; HCC-2998; single dose 10^−5 M; read-out: Growth inhibition (%)
CAKI-1 = assay: NCI-60 SRB screen; format: cell-based, human; conditions: Homo sapiens; CAKI-1; single dose 10^−5 M; read-out: Growth inhibition (%)
MDA-MB-435 = assay: NCI-60 SRB screen; format: cell-based; conditions: Homo sapiens, MDA-MB-435, read-out: Growth inhibition (%)
SK-MEL-5 = assay: NCI-60 SRB screen; format: cell-based, human; conditions: Homo sapiens; SK-MEL-5; single dose 10^−5 M; read-out: Growth inhibition (%)
HCT-15 = assay: NCI-60 SRB screen; format: cell-based, human; conditions: Homo sapiens; HCT-15; single dose 10^−5 M; read-out: Growth inhibition (%)
LOX IMVI = assay: NCI-60 SRB screen; format: cell-based, human; conditions: Homo sapiens, single dose 10^−5 M, read-out: Growth inhibition (%)
SF-295 = assay: NCI-60 SRB screen; format: cell-based, human; conditions: Homo sapiens; SF-295; single dose 10^−5 M; read-out: Growth inhibition (%)
NCI-H522 = assay: NCI-60 SRB screen; format: cell-based, human; conditions: Homo sapiens; NCI-H522; single dose 10^−5 M; read-out: Growth inhibition (%)
UO-31 = assay: NCI-60 SRB screen; format: cell-based, human; conditions: Homo sapiens; UO-31; single dose 10^−5 M; read-out: Growth inhibition (%)
A549/ATCC = assay: NCI-60 SRB screen; format: cell-based, human; conditions: Homo sapiens, single dose 10^−5 M, read-out: Growth inhibition (%)
OVCAR-3 = assay: NCI-60 SRB screen; format: cell-based, human; conditions: Homo sapiens; OVCAR-3; single dose 10^−5 M; read-out: Growth inhibition (%)
MALME-3M = assay: NCI-60 SRB screen; format: cell-based, human; conditions: Homo sapiens, single dose 10^−5 M, read-out: Growth inhibition (%)
RXF 393 = assay: NCI-60 SRB screen; format: cell-based, human; conditions: Homo sapiens; RXF 393; single dose 10^−5 M; read-out: Growth inhibition (%)
SK-MEL-28 = assay: NCI-60 SRB screen; format: cell-based; conditions: Homo sapiens; SK-MEL-28; single dose 10^−5 M; read-out: Growth inhibition (%)
SW-620 = assay: NCI-60 SRB screen; format: cell-based; conditions: Homo sapiens; SW-620; single dose 10^−5 M; read-out: Growth inhibition (%)
MOLT-4 = assay: NCI-60 SRB screen; format: cell-based; conditions: Homo sapiens; MOLT-4; single dose 10^−5 M; read-out: Growth inhibition (%)
HL-60(TB) = assay: NCI-60 SRB screen; format: cell-based, human; conditions: Homo sapiens; HL-60 (TB); single dose 10^−5 M; read-out: Growth inhibition (%)
IGROV1 = assay: NCI-60 SRB screen; format: cell-based, human; conditions: Homo sapiens, IGROV-1; IGROV1; single dose 10^−5 M; read-out: Growth inhibition (%)
SF-268 = assay: NCI-60 SRB screen; format: cell-based, human; conditions: Homo sapiens; SF-268; single dose 10^−5 M; read-out: Growth inhibition (%)
UACC-257 = assay: NCI-60 SRB screen; format: cell-based, human; conditions: Homo sapiens, UACC-257; UACC-275 (so in the source); single dose 10^−5 M; read-out: Growth inhibition (%)
COLO 205 = assay: NCI-60 SRB screen; format: cell-based, human; conditions: Homo sapiens; COLO 205; single dose 10^−5 M; read-out: Growth inhibition (%)
HOP-62 = assay: NCI-60 SRB screen; format: cell-based, human; conditions: Homo sapiens; HOP-62; single dose 10^−5 M; read-out: Growth inhibition (%)
NCI-H460 = assay: NCI-60 SRB screen; format: cell-based, human; conditions: Homo sapiens; NCI-H460; single dose 10^−5 M; read-out: Growth inhibition (%)
NCI/ADR-RES = assay: NCI-60 SRB screen; format: cell-based, human; conditions: Homo sapiens, single dose 10^−5 M, read-out: Growth inhibition (%)
NCI-H226 = assay: NCI-60 SRB screen; format: cell-based, human; conditions: Homo sapiens; NCI-H226; single dose 10^−5 M; read-out: Growth inhibition (%)
EKVX = assay: NCI-60 SRB screen; format: cell-based, human; conditions: Homo sapiens, single dose 10^−5 M, read-out: Growth inhibition (%)
NCI-H23 = assay: NCI-60 SRB screen; format: cell-based, human; conditions: Homo sapiens; NCI-H23; single dose 10^−5 M; read-out: Growth inhibition (%)
OVCAR-4 = assay: NCI-60 SRB screen; format: cell-based, human; conditions: Homo sapiens; OVCAR-4; single dose 10^−5 M; read-out: Growth inhibition (%)
SR = assay: NCI-60 SRB screen; format: cell-based; conditions: Homo sapiens, single dose 10^−5 M, read-out: Growth inhibition (%)
HT-29 = assay: NCI-60 SRB screen; format: cell-based; conditions: Homo sapiens; HT-29; single dose 10^−5 M; read-out: Growth inhibition (%)
NCI-H322M = assay: NCI-60 SRB screen; format: cell-based, human; conditions: Homo sapiens, single dose 10^−5 M, read-out: Growth inhibition (%)
786-0 = assay: NCI-60 SRB screen; format: cell-based; conditions: Homo sapiens; 786-0; single dose 10^−5 M; read-out: Growth inhibition (%)

N#CC1C(=O)NC(c2cccc([N+](=O)[O-])c2)c2sc3c(F)cccc3c21 (stereo not drawn) [Compound 5d, 4-Cyano-8-fluoro-1-(3-nitrophenyl)-1,2-dihydro[1]benzothieno[2,3-c] pyridin-3(4H)-one]
inhibition at 10 µM (CCRF-CEM): -0.08%
inhibition at 10 µM (SN12C): 5.16%
inhibition at 10 µM (HOP-92): 17.2%
inhibition at 10 µM (K-562): 8.17%
inhibition at 10 µM (ACHN): 13.5%
inhibition at 10 µM (KM12): 5.7%
inhibition at 10 µM [1]: 5%
inhibition at 10 µM (UACC-62): 12.2%
inhibition at 10 µM (SK-MEL-2): -13.1%
inhibition at 10 µM (M14): -8.86%
inhibition at 10 µM (HCT-116): 7.78%
inhibition at 10 µM (TK-10): -58.3%
inhibition at 10 µM (SK-OV-3): -0.9%
inhibition at 10 µM (HCC-2998): -14.2%
inhibition at 10 µM (CAKI-1): 14.4%
inhibition at 10 µM (MDA-MB-435): -6.69%
inhibition at 10 µM (SK-MEL-5): 4.83%
inhibition at 10 µM (HCT-15): 0.05%
inhibition at 10 µM (LOX IMVI): 17.4%
inhibition at 10 µM (SF-295): 1.95%
inhibition at 10 µM (NCI-H522): 22.4%
inhibition at 10 µM (UO-31): 41.3%
inhibition at 10 µM (A549/ATCC): -6.53%
inhibition at 10 µM (OVCAR-3): 9.36%
inhibition at 10 µM (MALME-3M): -12.1%
inhibition at 10 µM (RXF 393): -7.73%
inhibition at 10 µM (SK-MEL-28): -21.6%
inhibition at 10 µM (SW-620): 7.44%
inhibition at 10 µM (MOLT-4): 18.9%
inhibition at 10 µM (HL-60(TB)): -0.44%
inhibition at 10 µM (IGROV1): 36.6%
inhibition at 10 µM (SF-268): 16.4%
inhibition at 10 µM (UACC-257): -19%
inhibition at 10 µM (COLO 205): -14.8%
inhibition at 10 µM (HOP-62): 21.4%
inhibition at 10 µM (NCI-H460): 18.1%
inhibition at 10 µM (NCI/ADR-RES): 2.18%
inhibition at 10 µM (NCI-H226): 3.95%
inhibition at 10 µM (EKVX): 11.5%
inhibition at 10 µM (NCI-H23): -0.19%
inhibition at 10 µM (OVCAR-4): 9.55%
inhibition at 10 µM (SR): 17.3%
inhibition at 10 µM (HT-29): -2.29%
inhibition at 10 µM (NCI-H322M): 4.25%
inhibition at 10 µM (786-0): -6.8%

CCN1CCN(C2C(=O)NC(c3cccc([N+](=O)[O-])c3)c3sc4c(F)cccc4c32)CC1 (stereo not drawn) [Compound 6a, 4-(4-Ethylpiperazin-1-yl)-8-fluoro-1-(3-nitrophenyl)-1,2-dihydro[1]benzo thieno[2,3-c]pyridin-3(4H)-one]
inhibition at 10 µM (CCRF-CEM): -2.46%
inhibition at 10 µM (SN12C): 2.15%
inhibition at 10 µM (HOP-92): -1.02%
inhibition at 10 µM (K-562): 11%
inhibition at 10 µM (ACHN): 6.81%
inhibition at 10 µM (KM12): -0.94%
inhibition at 10 µM [1]: -0.71%
inhibition at 10 µM (UACC-62): 8.9%
inhibition at 10 µM (SK-MEL-2): -13.3%
inhibition at 10 µM (M14): -1.65%
inhibition at 10 µM (HCT-116): 6.68%
inhibition at 10 µM (TK-10): -51.9%
inhibition at 10 µM (SK-OV-3): -1.47%
inhibition at 10 µM (HCC-2998): -18.1%
inhibition at 10 µM (CAKI-1): 18.4%
inhibition at 10 µM (MDA-MB-435): -2.64%
inhibition at 10 µM (SK-MEL-5): -1.71%
inhibition at 10 µM (HCT-15): -7.17%
inhibition at 10 µM (LOX IMVI): -2.53%
inhibition at 10 µM (SF-295): -3.39%
inhibition at 10 µM (NCI-H522): 0.67%
inhibition at 10 µM (UO-31): 35.8%
inhibition at 10 µM (A549/ATCC): -7.34%
inhibition at 10 µM (OVCAR-3): 0.35%
inhibition at 10 µM (MALME-3M): -3.44%
inhibition at 10 µM (RXF 393): -24%
inhibition at 10 µM (SK-MEL-28): -13%
inhibition at 10 µM (SW-620): 5.15%
inhibition at 10 µM (MOLT-4): 9.9%
inhibition at 10 µM (HL-60(TB)): -2%
inhibition at 10 µM (IGROV1): 16.4%
inhibition at 10 µM (SF-268): 7.67%
inhibition at 10 µM (UACC-257): -14.7%
inhibition at 10 µM (COLO 205): -13.8%
inhibition at 10 µM (HOP-62): 8.57%
inhibition at 10 µM (NCI-H460): 0.82%
inhibition at 10 µM (NCI/ADR-RES): -2.46%
inhibition at 10 µM (NCI-H226): 10%
inhibition at 10 µM (EKVX): -2.24%
inhibition at 10 µM (NCI-H23): -1.88%
inhibition at 10 µM (OVCAR-4): -6.65%
inhibition at 10 µM (SR): 8.6%
inhibition at 10 µM (HT-29): -2.32%
inhibition at 10 µM (NCI-H322M): 0.49%
inhibition at 10 µM (786-0): -15%
